This is an account of results in patent publication US20260132123A1, “ABAD INHIBITOR COMPOUNDS” (UNIVERSITY COURT OF THE UNIVERSITY OF ST ANDREWS, priority 2021, published 2026).

As usually defined, the EC50 is the midpoint of the concentration-response curve.

The test concerns the target T1, 17β-HSD10 (Homo sapiens, UniProt Q99714).
T1 construct: Histev (histidine tag with TEV site) (N, cleaved yes); made in house; host or cells: E. coli BL21-CodonPlus
T1 sequence (Q99714 1-261): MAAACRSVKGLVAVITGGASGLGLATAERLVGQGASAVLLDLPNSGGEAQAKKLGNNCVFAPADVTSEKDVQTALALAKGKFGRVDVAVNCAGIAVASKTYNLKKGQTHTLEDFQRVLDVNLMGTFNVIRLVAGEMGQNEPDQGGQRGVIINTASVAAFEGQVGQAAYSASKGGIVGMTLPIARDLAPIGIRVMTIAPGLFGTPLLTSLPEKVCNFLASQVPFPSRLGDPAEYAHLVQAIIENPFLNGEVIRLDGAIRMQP
As to the kind of experiment: 17β-HSD10 (ABAD) enzyme inhibition assay, NADH oxidation read at 340 nm (primary screen and dose response). The test is classed as biochemical. The settings on record: for EC50 / Max. Effect (%) / Hill Slope / Max. Fit / Min. Fit: recombinant 17βHSD10 enzyme assay; for Hill Slope / Max. Fit / Min. Fit: curve fit. In outline:
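Tag-cleaved recombinant human 17β-HSD10 (2.5 nM) preincubated 15 min with compound in Tris pH 7.4, NaCl, DTT, Tween, BSA (catalase in some runs), then 100 μM acetoacetyl-CoA and NADH added. NADH oxidation by A340 fall: 35 min endpoint for screening at 10 μM; continuous 45 min for dose response.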

On to `Cc1ccsc1C(=O)N1CCC[C@@H]1c1ccccc1-c1c[nH]nc1C(F)(F)F` [ESC1002465], for which the EC50 is 1.51 µM, the “Max. Effect (%)” value was 87%, the “Hill Slope” value came to 1.2 and the “Max. Fit” value stood at 90. Besides, the “Min. Fit” value is recorded as −2.

Regarding `O=C(c1sccc1Cl)N1CCC[C@H]1c1ccccc1-c1cc(O)cc(F)c1` (racemic) [ESC1002776], the EC50 is 0.0407 µM, the “Max. Effect (%)” value was 99%, the “Hill Slope” value came out at 1 and the “Max. Fit” value was found to be 96. Besides, the “Min. Fit” value is given as −1.

Regarding `CCOc1cccc(-c2ccccc2[C@@H]2CCCN2C(=O)c2sccc2Cl)c1` (racemic) [ESC1002664], the EC50 was 0.417 µM, the “Max. Effect (%)” value worked out at 92%, the “Hill Slope” value is 1.2 and the “Max. Fit” value is reported as 92. For the same compound, the “Min. Fit” value stood at 0.

For `CC(C)CN(C(=O)c1ccccc1F)c1cccc(N(C)CC(N)=O)c1` [ESC1002570], the EC50 was over 20 µM and the “Max. Effect (%)” value is 48%.

As for `Cc1ccsc1C(=O)N1CCC[C@@H]1c1ccccc1-c1ccccc1` [ESC1002462], the EC50 was 0.234 µM, the “Max. Effect (%)” value turned out to be 99%, the “Hill Slope” value is 1.4 and the “Max. Fit” value is given as 98. For the same compound, the “Min. Fit” value was 6.

For `CC(C)CN(C(=O)c1ccccc1F)c1cccc(NCc2c[nH]c(C(C)C)n2)c1` [ESC1002632], the EC50 is over 20 µM and the “Max. Effect (%)” value was found to be 18%.

Turning to `COc1cccc(-c2ccccc2[C@@H]2CCCN2C(=O)c2[nH]ncc2Cl)c1` (racemic) [ESC1002626], the EC50 was 0.457 µM, the “Max. Effect (%)” value is recorded as 95%, the “Hill Slope” value was 1.6 and the “Max. Fit” value is listed as 91. Besides, the “Min. Fit” value is −1.

Regarding `Cc1ccsc1C(=O)N1CCC[C@@H]1c1ccccc1-c1cnn(C)c1` [ESC1002424], the EC50 was 0.933 µM, the “Max. Effect (%)” value worked out at 96%, the “Hill Slope” value is 1.3 and the “Max. Fit” value worked out at 96. Moreover, the “Min. Fit” value was 2.

`COc1cccc(-c2ccccc2[C@H]2CCCN2C(=O)c2ccccc2C)c1` [ESC1002434]: the “17β-HSD10 / ABAD activity in words (SAR discussion)” value is listed as “not tolerated”, the EC50 is over 20 µM and the “Max. Effect (%)” value stood at 20%.

As for `O=C(c1cccnc1)N1CCC[C@H]1c1ccccc1` [S1−T12, 3-{[(2S)-2-phenylpyrrolidin-1-yl]carbonyl}pyridine], the EC50 is over 20 µM and the “Max. Effect (%)” value stood at 9.1%.

As to `COc1cccc(-c2ccccc2[C@@H]2CCCN2C(=O)c2snc(Cl)c2Cl)c1` (racemic) [ESC1002627], the EC50 is over 20 µM and the “Max. Effect (%)” value was found to be 5%.

Regarding `Cc1cn[nH]c1C(=O)N1CCC[C@H]1c1ccccc1` [S1−T1, 4-methyl-5-{[(2S)-2-phenylpyrrolidin-1-yl]carbonyl}-1H-pyrazole], the EC50 was over 20 µM and the “Max. Effect (%)” value was 26.5%.

As to `O=C(c1sccc1Cl)N1CCC[C@H]1c1ccccc1-c1ccc2[nH]ncc2c1` (racemic) [ESC1002701], the EC50 is 0.288 µM, the “Max. Effect (%)” value was determined as 99%, the “Hill Slope” value was found to be 1.2 and the “Max. Fit” value was found to be 96. The “Min. Fit” value turned out to be 0.

In the case of `CCc1ccc(C(=O)N(CC(C)C)c2cccc(N(C)Cc3c[nH]cn3)c2)cc1` [ESC1002459, 4-ethyl-N-[3-[1H-imidazol-4-ylmethyl(methyl)amino]phenyl]-N-isobutyl-benzamide], the EC50 was 0.832 µM, the “Max. Effect (%)” value amounted to 93%, the “Hill Slope” value worked out at 1.2 and the “Max. Fit” value is recorded as 94. For the same compound, the “Min. Fit” value was −4.

`CC(C)CN(C(=O)c1ccccc1F)c1cccc(-n2cnnc2)c1` [ESC1002764]: the EC50 is over 20 µM and the “Max. Effect (%)” value is given as 4%.

Take `COc1cccc(-c2ccccc2[C@H]2CCCN2C(=O)c2scnc2C)c1` [ESC1002430]: the “17β-HSD10 / ABAD activity in words (SAR discussion)” value is “significantly less active”, the EC50 is 6.03 µM, the “Max. Effect (%)” value was 65% and the “Hill Slope” value is listed as 1.2. For the same compound, the “Max. Fit” value was 80 and the “Min. Fit” value is −1.

For `CC(C)CN(C(=O)c1ccncn1)c1cccc(N(C)Cc2c[nH]cn2)c1` [ESC1002703], the EC50 is 8.71 µM, the “Max. Effect (%)” value worked out at 52%, the “Hill Slope” value was found to be 1.3 and the “Max. Fit” value came to 70. For the same compound, the “Min. Fit” value is listed as −5.

As to `O=C(c1ccncc1)N1CCC[C@H]1c1ccccc1` [S1−T13, 4-{[(2S)-2-phenylpyrrolidin-1-yl]carbonyl}pyridine], the EC50 was over 20 µM and the “Max. Effect (%)” value is on record as 22.3%.

Regarding `O=C(c1ccon1)N1CCC[C@H]1c1ccccc1` [S1−T5, 3-{[(2S)-2-phenylpyrrolidin-1-yl]carbonyl}-1,2-oxazole], the EC50 is over 20 µM and the “Max. Effect (%)” value is recorded as 27.5%.

For the compound `COc1cccc(-c2ccccc2[C@@H]2CCCN2C(=O)c2nccn2C)c1` (racemic) [ESC1002661], the half-maximal effective concentration (EC50) is over 20 µM and the “Max. Effect (%)” value is listed as 7%.

As to `CC(C)CN(C(=O)c1ccccc1F)c1cccc(NCC(N)=O)c1` [ESC1002571], the concentration for a half-maximal effect (EC50) is over 20 µM and the “Max. Effect (%)” value was 13%.

As to `COc1cccc(-c2ccccc2[C@H]2CCCN2C(=O)c2sc(C)nc2C)c1` [ESC1002427], the EC50 is over 20 µM and the “Max. Effect (%)” value was found to be 4%.

As to `COc1cccc(-c2ccccc2[C@H]2CCCN2C(=O)C2CCN(C)CC2)c1` [ESC1002436], the EC50 is over 20 µM and the “Max. Effect (%)” value was 2%.

Consider `CC(C)CN(CC(C)C)c1cccc(N(C)Cc2cnc[nH]2)c1` [ESC1002025], for which the EC50 is over 20 µM and the “Max. Effect (%)” value stood at 15%.

In the case of `CCN(C(=O)C1CCOCC1)c1cccc(N(C)Cc2cnc[nH]2)c1` [S2−T6, N-ethyl-N-[3-[1H-imidazol-5-ylmethyl(methyl)amino]phenyl]tetrahydropyran-4-carboxamide], the EC50 was over 20 µM and the “Max. Effect (%)” value was 18.4%.

As to `CCN(C(=O)c1ccccn1)c1cccc(N(C)Cc2cnc[nH]2)c1` [S2−T3, N-ethyl-N-[3-[1H-imidazol-5-ylmethyl(methyl)amino]phenyl]pyridine-2-carboxamide], the EC50 is over 20 µM and the “Max. Effect (%)” value is listed as 20.3%.

Consider `CC(C)CN(C(=O)c1ccc[nH]c1=O)c1cccc(N(C)Cc2c[nH]cn2)c1` [ESC1002614, N-[3-[1H-imidazol-4-ylmethyl(methyl)amino]phenyl]-N-isobutyl-2-oxo-1H-pyridine-3-carboxamide], for which the EC50 was over 20 µM and the “Max. Effect (%)” value turned out to be 30%.

In the case of `CC(C)CN(C(=O)c1ccccc1F)c1cccc(N(C)Cc2c[nH]cn2)n1` [ESC1002795], the EC50 is 5.62 µM, the “Max. Effect (%)” value is on record as 77%, the “Hill Slope” value was determined as 1.1 and the “Max. Fit” value is 93. Further, the “Min. Fit” value is reported as 0.
